biological target: phosphorylated active hERK2 enzyme (Homo sapiens (Human), UniProt P28482); conditions: not given
Sequence (P28482 whole entry): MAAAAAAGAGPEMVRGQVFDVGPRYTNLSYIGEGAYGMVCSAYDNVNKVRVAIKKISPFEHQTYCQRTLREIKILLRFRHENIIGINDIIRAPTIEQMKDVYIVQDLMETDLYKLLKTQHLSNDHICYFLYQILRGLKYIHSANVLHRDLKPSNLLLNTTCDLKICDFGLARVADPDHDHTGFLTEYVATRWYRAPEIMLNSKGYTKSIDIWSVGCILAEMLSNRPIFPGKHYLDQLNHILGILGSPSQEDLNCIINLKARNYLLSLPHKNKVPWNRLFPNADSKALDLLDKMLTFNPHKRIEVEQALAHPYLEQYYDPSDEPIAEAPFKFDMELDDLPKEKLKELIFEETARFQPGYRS

IC50 [nM]	Structure (SMILES)
4.29	Cc1cc(-n2ncc3cc(NC(=O)N[C@@H](c4ccccc4)C(C)(C)O)nc(CO)c32)ccn1 [Example 254, 1-[7-(hydroxymethyl)-1-(2-methylpyridin-4-yl)-1H-pyrazolo[3,4-c]pyridin-5-yl]-3-[(1S)-2-hydroxy-2-methyl-1-phenylpropyl]urea]
33.7	CCO[C@H]1CCC[C@@H]1NC(=O)Nc1cc2cnn(-c3ccnc(C)c3)c2cn1 (racemic) [Example 147, Racemic 1-[(1S,2S) and (1R,2R)-2-ethoxycyclopentyl]-3-[1-(2-methylpyridin-4-yl)-1H-pyrazolo[3,4-c]pyridin-5-yl]urea]

same assay, conditions: read-out: ERK2 IC50; IMAP-FP assay; 0.5 nM hERK2, 30 μM ATP; 10 point titration, 3 μM starting concentration

IC50 [nM]	Structure (SMILES)
174	Cc1cc(-n2ncc3cc(NC(=O)NC4CC(C)(C)Oc5ccccc54)ncc32)ccn1 (centres unmarked) [Example 46, 1-(2,2-dimethyl-3,4-dihydro-2H-chromen-4-yl)-3-[1-(2-methylpyridin-4-yl)-1H-pyrazolo[3,4-c]pyridin-5-yl]urea]
831	Cc1cc(-n2ncc3cc(NC(=O)N[C@H]4CN(C)C[C@@H]4c4cnn(C)c4)ncc32)ccn1 [Example 165, 1-[(3R,4S)-1-methyl-4-(1-methyl-1H-pyrazol-4-yl)pyrrolidin-3-yl]-3-[1-(2-methylpyridin-4-yl)-1H-pyrazolo[3,4-c]pyridin-5-yl)urea]
200	Cc1cc(-n2ncc3cc(NC(=O)NC4CNC(c5ccccc5)C4)ncc32)ccn1 (centres unmarked) [Example 67, 1-[1-(2-methylpyridin-4-yl)-1H-pyrazolo[3,4-c]pyridin-5-yl]-3-(5-phenylpyrrolidin-3-yl)urea]
9.04	Cc1cc(-n2ncc3cc(NC(=O)N[C@H]4[C@H](c5ccccc5)CN(C)C45COC5)ncc32)ccn1 [Example 107, 1-[(7R,8S)-5-methyl-7-phenyl-2-oxa-5-azaspiro[3.4]oct-8-yl]-3-[1-(2-methylpyridin-4-yl)-1H-pyrazolo[3,4-c]pyridin-5-yl)urea]
66.4	Cc1cc(-n2ncc3cc(NC(=O)N[C@H]4CN(C)C[C@@H]4C)ncc32)ccn1 [Example 25, 1-[(3R,4S)-1,4-dimethylpyrrolidin-3-yl]-3-[1-(2-methylpyridin-4-yl)-1H-pyrazolo[3,4-c]pyridin-5-yl]urea]
13.9	Cc1cc(-n2ncc3cc(NC(=O)N[C@H]4CCC[C@H]4Cc4ccccc4)ncc32)ccn1 [Example 160, 1-[(1S,2S)-2-benzylcyclopentyl]-3-[1-(2-methylpyridin-4-yl)-1H-pyrazolo[3,4-c]pyridin-5-yl)urea]
215	Cc1cc(-n2ncc3cc(NC(=O)NC4COc5ccccc54)ncc32)ccn1 (centres unmarked) [Example 177, 1-(2,3-dihydro-1-benzofuran-3-yl)-3-[1-(2-methylpyridin-4-yl)-1H-pyrazolo[3,4-c]pyridin-5-yl]urea]
762	Cc1cc(-n2ncc3cc(NC(=O)N[C@@H]4CCN(c5ccc(F)cc5)C4)ncc32)ccn1 [Example 34, 1-[(3R)-1-(4-fluorophenyl)pyrrolidin-3-yl]-3-[1-(2-methylpyridin-4-yl)-1H-pyrazolo[3,4-c]pyridin-5-yl]urea]
300	Cc1cc(-n2ncc3cc(NC(=O)N[C@H]4CN(C)C5(COC5)[C@@H]4c4ccccc4)ncc32)ccn1 [Example 202, 1-[(7R,8R)-5-methyl-8-phenyl-2-oxa-5-azaspiro[3.4]oct-7-yl]-3-[1-(2-methylpyridin-4-yl)-1H-pyrazolo[3,4-c]pyridin-5-yl]urea]
0.983	Cc1cc(-n2ncc3cc(NC(=O)N[C@@H]4CN(C)C[C@H]4c4ccccc4)ncc32)ccn1 [Example 181, 1-((3S,4R)1-methyl-4-phenyl-pyrrolidin-3-yl)-3-[1-(2-methyl-pyridin-4-yl)-1H-pyrazolo[3,4-c]pyridin-5-yl]urea]
23.4	Cc1cc(-n2ncc3cc(NC(=O)NC[C@@H]4CCNC4)ncc32)ccn1 [Example 286, 1-[1-(2-methylpyridin-4-yl)-1H-pyrazolo[3,4-c]pyridin-5-yl]-3-[(3R)-pyrrolidin-3-ylmethyl]urea]

More lines, now with the values behind:

Structure (SMILES)	IC50 [nM]
Cc1cc(-n2ncc3cc(NC(=O)NC(CN)c4ccccc4)ncc32)ccn1 (centres unmarked) [Example 62, 1-(2-amino-1-phenylethyl)-3-[1-(2-methylpyridin-4-yl)-1H-pyrazolo[3,4-c]pyridin-5-yl]urea]	0.962
Cc1cc(-n2ncc3cc(NC(=O)N[C@@H](c4ccccc4)C(C)(C)O)ncc32)ccn1 [Example 292, (S)-1-(2-methyl-2-hydroxy-1-phenylpropyl)-3-(1-(2-methylpyridin-4-yl)-1H-pyrazolo[3,4-c]pyridin-5-yl)urea]	0.558
CC(C)(O)[C@@H](NC(=O)Nc1cc2cnn(-c3ccc(F)cc3)c2cn1)c1ccccc1 [Example 296, 1-[1-(4-fluorophenyl)-1H-pyrazolo[3,4-c]pyridin-5-yl]-3-[(1S)-2-hydroxy-2-methyl-1-phenylpropyl]urea]	0.812
Cc1cc(-n2ncc3cc(NC(=O)N[C@H](C)c4ccc(Cl)c(Cl)c4)ncc32)ccn1 [Example 220, 1-[(1R)-1-(3,4-dichlorophenyl)ethyl]-3-[1-(2-methylpyridin-4-yl)-1H-pyrazolo[3,4-c]pyridin-5-yl]urea]	3.33
COC[C@@H](NC(=O)Nc1cc2cnn(-c3ccnc(C)c3)c2cn1)c1ccc(F)cc1 [Example 33, 1-[(1S)-1-(4-fluorophenyl)-2-methoxyethyl]-3-[1-(2-methylpyridin-4-yl)-1H-pyrazolo[3,4-c]pyridin-5-yl]urea]	590
Cc1cc(-n2ncc3cc(NC(=O)NC(CCN(C)C)c4ccccn4)ncc32)ccn1 (centres unmarked) [Example 72, 1-[3-(dimethylamino)-1-pyridin-2-ylpropyl]-3-[1-(2-methylpyridin-4-yl)-1H-pyrazolo[3,4-c]pyridin-5-yl]urea]	10.2
Cc1cc(-n2ncc3cc(NC(=O)N[C@H](C)c4ccc(F)c(Cl)c4)ncc32)ccn1 [Example 219, 1-[(1R)-1-(3-chloro-4-fluorophenyl)ethyl]-3-[1-(2-methylpyridin-4-yl)-1H-pyrazolo[3,4-c]pyridin-5-yl]urea]	2.85
Cc1cc(-n2ncc3cc(NC(=O)NC(CCN4CCCCC4)c4ccccc4)ncc32)ccn1 (centres unmarked) [Example 53, 1-[1-(2-methylpyridin-4-yl)-1H-pyrazolo[3,4-c]pyridin-5-yl]-3-(1-phenyl-3-piperidin-1-ylpropyl)urea]	49.2
Cc1cc(-n2ncc3cc(NC(=O)N[C@@H](c4ccc(F)cc4)C(C)(C)O)ncc32)ccn1 [Example 294, 1-[(1S)-1-(4-fluorophenyl)-2-hydroxy-2-methylpropyl]-3-[1-(2-methylpyridin-4-yl)-1H-pyrazolo[3,4-c]pyridin-5-yl]urea]	1.08
CC(C)Cn1ncc2cc(NC(=O)N[C@H](C)c3ccccc3)nc(CO)c21 [Example 306, 1-[7-(hydroxymethyl)-1-(2-methylpropyl)-1H-pyrazolo[3,4-c]pyridin-5-yl]-3-[(1R)-1-phenylethyl]urea]	178
C[C@@H](NC(=O)Nc1cc2cnn(C)c2cn1)c1ccc(F)cc1 [Example 232, 1-[(1R)-1-(4-fluorophenyl)ethyl]-3-(1-methyl-1H-pyrazolo[3,4-c]pyridin-5-yl)urea]	579
C[C@@H](NC(=O)Nc1cc2cnn(-c3ccc(F)cc3)c2c(COCCO)n1)c1ccccc1 [Example 246, 1-{1-(4-fluorophenyl)-7-[(2-hydroxyethoxy)methyl]-1H-pyrazolo[3,4-c]pyridin-5-yl}-3-[(1R)-1-phenylethyl]urea]	52.2
Cc1cc(-n2ncc3cc(NC(=O)N[C@H](C)c4ccccc4)ncc32)ccn1 [Example 59, 1-[1-(2-methylpyridin-4-yl)-1H-pyrazolo[3,4-c]pyridin-5-yl]-3-[(1R)-1-phenylethyl]urea]	1.01
COCCNCc1nc(NC(=O)N[C@H](C)c2ccccc2)cc2cnn(-c3ccc(F)cc3)c12 [Example 318, 1-[1-(4-Fluorophenyl)-7-{[(2-methoxyethyl)amino]methyl}-1H-pyrazolo[3,4-c]pyridin-5-yl]-3-[(1R)-1-phenylethyl]urea]	141
Cc1cc(-n2ncc3cc(NC(=O)NCc4c(-c5ccccc5)noc4C)ncc32)ccn1 [Example 114, 1-[(5-methyl-3-phenyl-isoxazol-4-yl)methyl]-3-[1-(2-methylpyridin-4-yl)-1H-pyrazolo[3,4-c]pyridin-5-yl)urea]	2.14
COCCOC[C@@H](NC(=O)Nc1cc2cnn(-c3ccnc(C)c3)c2cn1)c1ccccc1 [Example 136, 1-[(1S)-2-(2-methoxyethoxy)-1-phenylethyl]-3-[1-(2-methylpyridin-4-yl)-1H-pyrazolo[3,4-c]pyridin-5-yl]urea]	4.39
Cc1cc(-n2ncc3cc(NC(=O)NC(C)c4ccc(S(C)(=O)=O)cc4)ncc32)ccn1 (centres unmarked) [Example 66, 1-[1-(2-methylpyridin-4-yl)-1H-pyrazolo[3,4-c]pyridin-5-yl]-3-{1-[4-(methylsulfonyl)phenyl]ethyl}urea]	7.78
COc1ccc(CNC(=O)Nc2cc3cnn(-c4ccncc4)c3cn2)cc1 [Example 9, 1-(4-methoxybenzyl)-3-(1-pyridin-4-yl-1H-pyrazolo[3,4-c]pyridin-5-yl)urea]	5.3
O=C(NCc1ccc(F)cc1)Nc1cc2cnn(-c3ccc(F)cc3)c2cn1 [Example 1, 1-(4-fluorobenzyl)-3-(1-(4-fluorophenyl)-1H-pyrazolo[3,4-c]pyridin-5-yl)urea]	26
CC(C)(O)[C@@H](NC(=O)Nc1cc2cnn(-c3ccc(F)cc3)c2cn1)c1ccc(F)cc1 [Example 295, 1-[(1S)-1-(4-fluorophenyl)-2-hydroxy-2-methylpropyl]-3-[1-(4-fluorophenyl)-1H-pyrazolo[3,4-c]pyridin-5-yl]urea]	1.29
Cc1cc(-n2ncc3cc(NC(=O)NCCF)ncc32)ccn1 [Example 110, 1-(2-fluoroethyl)-3-[1-(2-methylpyridin-4-yl)-1H-pyrazolo[3,4-c]pyridin-5-yl]urea]	106
Cc1cc(-n2ncc3cc(NC(=O)NCc4cccc(S(C)(=O)=O)c4)ncc32)ccn1 [Example 93, 1-[1-(2-methylpyridin-4-yl)-1H-pyrazolo[3,4-c]pyridin-5-yl]-3-[3-(methylsulfonyl)-benzyl]urea]	1.44

Reference: patent US9884048B2, “ERK inhibitors” (Merck Sharp & Dohme Corp., priority 2014, dated 2018)
